Results taken from patent US8530183B2, “Zinc sensors for cellular imaging” (The Board of Regents of the University of Texas System, priority 2010, dated 2013).
pKd: −log10 of the molar value. Several values for one entry are separate records, joined by “and”; a condition that tells them apart may be missing. Equal values may be shown once. Entries after “also recorded” stand apart in the source; their conditions may differ. Read-outs that look alike come from different tables or passages of the source.

Tests used:
[1] = FluoZin-3, background; read-out: Zn^2+ dissociation constant Kd(Zn^2+); cited from earlier work
[2] = FluoZin-3, background; read-out: Kd(Ca^2+); cited from earlier work
[3] = tested on: pancreatic islets; test: Confocal imaging of dye uptake and insulin/Zn2+ release in pancreatic islets; format: cell-based, mouse; details: ZIMIR 2 μM for 25 min; mouse and human islets
Experimental: FIGS. 8A-C. Imaging insulin/Zn^2+ release in islets by confocal laser scanning microscopy. (FIGS. 8A-B) Confocal images of mouse islets labeled with ZIMIR (FIG. 8A) or calcein/AM (FIG. 8B). (FIG. 8C) Confocal ZIMIR imaging of insulin/Zn^2+ release in a mouse islet bathed in SAB. Images from two example layers 15 μm apart before and 10 sec post KCl (40 mM) stimulation were shown.
FIG. 11. ZIMIR rapidly labels cells of intact human islets. Representative CLSM images of a ZIMIR labeled human islet at three focal planes 20 μm apart.
Islets labeling and ZIMIR imaging by confocal laser scanning microscopy. Experiments with rodent animals were carried out according to protocols approved by the Institutional Animal Care and Use Committee of University of Texas Southwestern Medical Center. Rodent islets were isolated from Sprague-Dawley rats or C57BL/6 mice after digesting exocrine tissues of pancreas using collagenase as described below. To image insulin release in islets, the inventors labeled islets with ZIMIR (final concentration 2 μM with 0.025% Pluronic) in SAB buffer for […]. Labeled islets were then transferred to an imaging dish that had been coated with 0.5% PuraMatrix peptide hydrogel (BD Biosciences, Cat # 354250). Islets adhered to the PuraMatrix hydrogel within 5 min. They then imaged ZIMIR fluorescence by confocal laser scanning microscopy using a LSM510 imaging system (Carl Zeiss) and a 40× oil immersion objective (Dakin and Li, 2007).
Confocal imaging of ZIMIR uptake and insulin/Zn^2+ release in pancreatic islets. In addition to cultured cells, ZIMIR also rapidly and noninvasively labels cells in preparations such as dissected pancreatic islets. After loading islets with ZIMIR (2 μM) for 25 min, the inventors applied CLSM to track the distribution of ZIMIR in three dimensions (3D). […] The result confirmed that ZIMIR readily diffused through the interstitial space to reach interior cells, whereas calcein/AM was trapped by cells in the outer layer, unable to penetrate any deeper. After labeling, the inventors depolarized cells with high concentration of KCl.

[4] = tested on: INS-1 cells; test: Response of membrane-anchored ZIMIR to extracellular Zn2+ and decay upon Zn2+ washout; format: cell-based, rat; details: INS-1 cells labeled with ZIMIR, EDTA 10 μM plus DPAS at low micromolar concentrations
Experimental: FIGS. 5A-B. Membrane anchored ZIMIR reports changes of [Zn^2+]e. (FIG. 5A) Example fluorescence images (Excitation 488±7.5 nm, emission 530±20 nm) of INS-1 cells labeled with ZIMIR at different [Zn^2+]e. (FIG. 5B) Quantification of the average ZIMIR fluorescence intensity along the plasma membrane (IZIMIR(PM)).
(FIG. 7A) Time courses of IZIMIR(PM) decay after washing INS-1 cells (initially bathed in FIBS containing 1 μM Zn^2+) with HBS containing EDTA (10 μM) and DPAS (0-8 μM). (FIG. 7B) ZIMIR imaging of insulin/Zn^2+ release of MIN6 cells bathed in SAB containing EDTA (10 μM) and DPAS (4 μM). Time courses of IZIMIR(PM) fluctuation of four separate regions of interest (ROI 1-4) and example ZIMIR images at different time points were shown (a-e; arrow heads highlighting local ZIMIR increases in separate ROIs at different time).
To characterize the response of membrane anchored ZIMIR to changes of extracellular Zn^2+ concentration ([Zn^2+]), the inventors varied [Zn^2+]e from low nanomolar to micromolar, using Zn^2-1 buffers containing nitrilotriacetic acid (for [Zn^2+]e<100 nM) (Hirano et al., 2000) or histidine (for [Zn^2+]e. 100 nM) (Hauser and Tsien, 2007). After recording fluorescence images at different [Zn^2+]e levels, the inventors washed cells with a nominally Zn^2+ free SAB containing 0.2 mM DPAS and followed the decay of IZIMIR(PM).
Upon membrane depolarization, ZIMIR signal increased immediately and reached a plateau before it gradually declined (FIGS. 6E-F). Unexpectedly, however, in some occasions, ZIMIR signal remained elevated even after the inventors lowered KCl concentration to the resting level (5 mM) (FIG. 9). […] In INS-1 beta cells labeled with ZIMIR, after recording ZIMIR fluorescence in solutions containing ˜1 μM of Zn2+, the inventors perifused cells with a nominally Zn^2+-free solution containing only EDTA (10 μM), or with both EDTA (10 μM) and different concentrations of DPAS.

[5] = Competition assay of Zn2+ chelation kinetics (ZIMIR-C2 fluorescence decline after adding EDTA or DPAS); details: physiological salines, ZIMIR-C2 1 μM in Hanks Balanced Saline Solution
Experimental: FIG. 10. […] In this competition assay, fluorescence intensity (Ex 490 nm, Em 525 nm) of ZIMIR-C2 (1 μM) in Hanks Balanced Saline Solution was recorded. The rate of fluorescence intensity decline after adding EDTA or DPAS reflects the kinetics of EDTA/Zn^2I or DPAS/Zn^2+ complexation.

[6] = Zn2+ titration of ZIMIR-C2 (fluorescence, NTA Zn2+ buffering system); format: binding
Experimental: (§1) FIGS. 3A-D. (FIG. 3A) Absorption spectrum of ZIMIR-C2. (FIG. 3B) Zn^2+ dependent fluorescence enhancement of ZIMIR-C2. Zn^2+ concentrations (nM) were 0, 43, 140, 440, 840, 1640 and 6440 (from bottom to top). (FIG. 3C) Zn^2+ titration of ZIMIR-C2 as measured from its emission at 515 nm. The solid line represents the exponential fit. […] All measurements were performed in buffers containing 100 mM Hepes, pH 7.5 with 0.4 μM of ZIMIR-C2.
Zn^2+ titration and ion selectivity of ZIMIR. To measure the Zn^2+ affinity of ZIMIR, we performed Zn2+ titration of ZIMIR-C2 (0.4 μM) using a Zn^2+ buffering system based on nitrilotriacetic acid (NTA) (Komatsu et al., 2005). The buffer contained 100 mM HEPES (pH 7.5), 10 mM NTA and varying concentrations of ZnSO4 (0-9 mM) to reach free Zn2+ concentration between 0.1 nM to 43 nM. Zn^2+ concentrations above 43 nM were not buffered. However, since the commercial Hepes always contains a trace amount of divalent metal (≦5 ppm), it was necessary to add a minimum amount of NTA to chelate the residual Zn^2+ present in the Hepes solution. […] From that point, increasing amount of ZnSO4 was added to reach higher Zn^2+ concentrations. […] To examine the Zn^2+ binding selectivity of ZIMIR against Ca^2+ or Mg^2+, we measured the fluorescence intensity of ZIMIR-C2 in a nominally Zn^2+ free solution containing 50 μM DPAS or in a solution containing 1 μM ZnCl2, with or without Ca^2+/Mg^2+ (1 mM).

[7] = Zn2+ binding selectivity of ZIMIR-C2 against Ca2+ or Mg2+ (fluorescence intensity); details: Ca^2+ 1 mM, Mg^2+ 1 mM; with or without 1 μM ZnCl2
Experimental: as §1
Zn^2+ titration and ion selectivity of ZIMIR. To measure the Zn^2+ affinity of ZIMIR, we performed Zn2+ titration of ZIMIR-C2 (0.4 μM) using a Zn^2+ buffering system based on nitrilotriacetic acid (NTA) (Komatsu et al., 2005). The buffer contained 100 mM HEPES (pH 7.5), 10 mM NTA and varying concentrations of ZnSO4 (0-9 mM) to reach free Zn2+ concentration between 0.1 nM to 43 nM. Zn^2+ concentrations above 43 nM were not buffered. However, since the commercial Hepes always contains a trace amount of divalent metal (≦5 ppm), it was necessary to add a minimum amount of NTA to chelate the residual Zn^2+ present in the Hepes solution. […] To examine the Zn^2+ binding selectivity of ZIMIR against Ca^2+ or Mg^2+, we measured the fluorescence intensity of ZIMIR-C2 in a nominally Zn^2+ free solution containing 50 μM DPAS or in a solution containing 1 μM ZnCl2, with or without Ca^2+/Mg^2+ (1 mM).

[8] = Absorption, fluorescence and solubility properties of ZIMIR-C2 in aqueous solution; format: physicochemical
Experimental: as §1
The inventors synthesized ZIMIR in a total of 8 steps (FIG. 2). […] The absorption maximum of ZIMIR-C2 centered around 493 nm with an extinction coefficient of 73,000 M-1 cm-1. At low nanomolar [Zn^2+], ZIMIR-C2 was nearly non-fluorescent (fluorescence quantum yield Qf (0 Zn^2+) =0.0032) (FIGS. 3A-D). Its fluorescence intensity increased with [Zn^2+]and reached a plateau at micromolar [Zn^2+], with an overall fluorescence enhancement of 70-fold upon Zn^2+ complexation (Qf (Zn^2+) =0.225), providing a Zn^2+ binding dissociation constant of 0.45 μM (FIG. 3C). To confirm that

For COc1ccc(N(CC(=O)O)CC(=O)O)c(OCCOc2cc(-c3c4cc(F)c(=O)cc-4oc4cc(O)c(F)cc34)ccc2NCC(=O)O)c1 [FluoZin-3], the pKd [1] is given as 7.82 and the pKd [2] is given as roughly 5.00.

With calcein/AM [reference compound] the “distribution of dye in islets (3D, CLSM)” value [3] was “only labeled cells of the superficial layers”.

With O=S(=O)(O)CCN(Cc1ccccn1)Cc1ccccn1 [DPAS, 2-[Bis(2-pyridinylmethyl)amino]-ethanesulfonic acid] the “increase of the rate of Zn^2+ dissipation from the plasma membrane” value [4] was “about one order of magnitude” and the “Zn^2+ chelation kinetics compared with EDTA” value [5] was “much faster kinetics than EDTA”.

In the case of CCN(CC(=O)O)Cc1c2oc3c(CN(CC)CC(=O)O)c(O)ccc3c(-c3cc(NCCN(CCc4ccccn4)Cc4ccccn4)ccc3C(=O)O)c-2ccc1=O [ZIMIR-C2], the pKd ([6]; 0.4 μM ZIMIR-C2, 100 mM HEPES pH 7.5, two independent titrations, read-out: Kd(Zn^2+), independent Zn^2+ titrations) was 6.36 and 6.33, the pKd ([6]; FIG. 3C, emission at 515 nm, read-out: Zn^2+ binding dissociation constant) was 6.35 and the pKd ([6]; average of two titrations, 100 mM HEPES pH 7.5, read-out: average Kd(Zn^2+)) was 6.35. The “overall fluorescence enhancement upon Zn^2+ complexation” value ([6]; plateau at micromolar [Zn^2+]) was 70 fold, the “effect of Ca^2+ and Mg^2+ on fluorescence / Zn^2+ selectivity” value [7] was “neither Ca^2+ nor Mg^2+ affected ZIMIR-C2 fluorescence; also recorded: binds Zn^2+ selectively against Ca^2+ (1 mM) and Mg^2+ (1 mM)” and the absorption maximum ([8]; 100 mM Hepes, pH 7.5) was “around 493 nm”. For the same molecule, the “aqueous solubility” value ([8]; aqueous solutions) was “highly soluble”, the extinction coefficient ([8]; at absorption maximum) was 73,000 M-1 cm-1 and the “fluorescence quantum yield Qf (0 Zn^2+)” value ([8]; low nanomolar [Zn^2+]) was 0.0032. For the same molecule, the “fluorescence quantum yield Qf (Zn^2+)” value ([8]; upon Zn^2+ complexation, micromolar [Zn^2+]) was 0.225.
